This note sets out measurements from PMC4319983, “PE859, a Novel Tau Aggregation Inhibitor, Reduces Aggregated Tau and Prevents Onset and Progression of Neural Dysfunction In Vivo” (PLoS ONE, 2015).

In the assay the target is T1, tau (microtubule-associated protein tau) (Homo sapiens, UniProt P10636).
T1 construct: gene MAPT
Nature of the assay: ThT fluorescence assay of heparin-induced aggregation of recombinant tau; 3RMBD result confirmed by TEM and CD. The format is biochemical. The source says: ThT fluorescence assay of heparin-induced aggregation of recombinant tau; 3RMBD result confirmed by TEM and CD on tau (microtubule-associated protein tau) | PE859 inhibited the heparin-induced aggregation of both 3RMBD and full length tau in a concentration-dependent manner.

T1 sequence (P10636 150-247 isoform P10636-3): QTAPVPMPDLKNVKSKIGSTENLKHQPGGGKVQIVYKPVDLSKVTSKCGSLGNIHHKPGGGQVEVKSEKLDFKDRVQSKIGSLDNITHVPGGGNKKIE

By IC50 is commonly meant the concentration that inhibits the measured activity by half. For the compound `COc1cc(OCc2ccccn2)ccc1/C=C/c1cc(/C=C/c2ccc3cc[nH]c3c2)[nH]n1` [PE859, 3-[(1E)-2-(1H-indol-6-yl)ethenyl]-5-[(1E)-2-[2-methoxy-4-(2-pyridylmethoxy)phenyl]ethenyl]-1H-pyrazole], the IC50 is 810 nM.
